Where a name gives a salt, the structure may show the parent alone.
Experiments:
GPR40 = biological target: T1, GPR40 (Homo sapiens, UniProt O14842); test: IP1 accumulation assay in HEK293 cells stably expressing GPR40; assay type: cell-based; conditions: HEK293 cells stably expressing GPR40, 2 hours at 37° C.
T1 construct: expressed in transfected cells
Method: IP1 accumulation assay was used to evaluate the potency of compounds. HEK293 cells stably expressing GPR40 were cultured in 5% CO2 incubator (ThermoFisher) in maintenance media (Dulbecco's modified Eagle's medium with 4.5 g/L of glucose, 10% fetal bovine serum, 100 μg/mL Hygromycin, and Penicillin (100 U/mL)/Streptomycin (100 μg/mL)) till 100% confluency. Cells were harvested freshly, spun down at 300× g for 5 min, and resuspended in pre-warmed 1× stimulant buffer from Cisbio IP-One HTRF Detection kit (Cisbio). Cell density was adjusted to 2.0×10^6 cells/mL. DMSO was used as blank control and AMG-1638 (CAS #: 1142214-62-7) as positive control. Compounds were prepared at 10 mM in DMSO and 5 nL of 3× serially diluted compounds (10 concentrations) were added to each well of the 384-LDV assay plate (Corning) by using ECHO 550 (Labcyte). Five μL of cells in suspension were transferred into each well by using Multidrop Combi Reagent Dispenser (ThermoFisher). Assay plate was then sealed and incubated at 37° C. for 2 hours. IP-d2 reagent and anti-IP1 reagent were prepared following the manual (Cisbio). Five μL of IP1-d2 and then 5 μL of anti-IP1 antibody was added to each well sequentially. Assay plate was incubated at room temperature for 60 min and then read at 665 nm/615 nm on an Envision plate reader (PerkinElmer). The ratio of values obtained at 665 nm and 615 nm was used for calculation of IP1 accumulation: % Effect=(Ratiosample−Ratioblank)/(RatioAMG-1638−Ratioblank)×100. Dose curve was fitted and EC50 of each compound was calculated by using XLFit.

[1] = Pharmacokinetics in mice (IV and PO), plasma LC-MS/MS; assay type: in vivo, Male ICR (CD-1) mice; conditions: for Cl / AUC / half-life / Vd: IV (1 mpk); for AUC / half-life / Vd / Cmax / Tmax / bioavailability: male, ICR (CD-1), mouse, plasma; for AUC / half-life / Vd: 1 mg/kg; for half-life: read-out: T½ (converted); for Vd: read-out: Vss; for Cmax / Tmax / bioavailability: 10 mg/kg, PO (10 mpk); for bioavailability: oral bioavailability
Method: Male ICR (CD-1) mice at around 4-6 weeks with body weight of around 25 grams (n=3) were purchased from VT-River (Zhejiang, China). After 1-week acclimation, animals were dosed with exemplary compounds intravenously at 1 mpk or orally at 10 mpk (0.5% methylcellulose in PBS as vehicle for both routes of administration). Blood samples (30 μL) were collected via saphenous vein puncture at 5 (IV only), 15, 30, 60, 120, 240, 480, and 1440 min post dose. The blood samples were saved in 0.5 M K2EDTA coated tubes and centrifuged at 4,600 rpm at 4° C. for 5 min. Plasma samples were collected and stored in −80° C. till PK analysis.
Take 10 μL of K2EDTA-treated plasma samples of CD-1 mice, add 200 μL of precipitation solution with internal standard (5 ng/mL Terfenadine in MeOH/ACN), mix well by vortexing for 1 min at room temperature followed by centrifuge at 4° C. and 4000 rpm for 15 min. Save the supernatant as injection for LC-MS/MS quantification of exemplary compounds in plasma samples of mice.
Establish a standard curve before and after each analytical batch, accompanied by quality controls of low, medium, and high concentrations. The number of quality control samples is not less than 6 and should be equal to or more than the number of samples of each batch, and interspersed in sample measurement. Standard curve and quality control samples of each batch must meet the acceptance criteria.

C57BL/6 mice = test: oGTT study (oral glucose tolerance test); assay type: in vivo, Male C57BL/6 mice; conditions: 30 mpk oral gavage, blood glucose AUC 0-120 minutes after 5 g/kg glucose challenge
Method: (§1) Male C57BL/6 mice were purchased from Zhejiang Vital River Laboratories Co., Ltd (a branch of Charles River Laboratories) at around 7-8 weeks of age (n=8). Animal were kept under regular light/dark cycle (12 h light: 12 h dark, L^D) at room temperature and fed regular chow diet and tap water ad libitum in facility for more than one week. On study day, animals were fasted by removing food at 7:00 AM. Blood glucose was measured at 9:00 AM by a glucometer (Roche) via tail bleeding and mice were sorted to groups of treatment based on average blood glucose (˜[…]). The vehicle (0.5% methylcellulose) or exemplary compounds solutions (30 mpk dose) were mixed well and dosed by oral gavage (dosing volume=10 ml/kg body weight). At 1:00 PM, blood glucose was measured by a glucometer (0 min). Animals were then PO dosed with 5 g/kg glucose for oral glucose challenge. Blood glucose was then measured at 20, 40, 60, and 120 min by glucometer. At the end of study, 50 μl tail blood from treatment groups were collected and mixed with 4% sodium citrate (vol 9:1). Tubes were centrifuged in a benchtop centrifuge for 10 min at 8,000 RPM at 4° C. Plasma samples were separated and stored in −80° C. freezer for measurements of PK by LC-MS/MS.

[2] = Plasma drug concentration at end of oGTT study by LC-MS/MS; assay type: in vivo, Male C57BL/6 mice; conditions: male, C57BL/6, mouse, 30 mpk oral, 6 h post dose, read-out: Drug conc
Method: as §1

T1 sequence (O14842 whole entry): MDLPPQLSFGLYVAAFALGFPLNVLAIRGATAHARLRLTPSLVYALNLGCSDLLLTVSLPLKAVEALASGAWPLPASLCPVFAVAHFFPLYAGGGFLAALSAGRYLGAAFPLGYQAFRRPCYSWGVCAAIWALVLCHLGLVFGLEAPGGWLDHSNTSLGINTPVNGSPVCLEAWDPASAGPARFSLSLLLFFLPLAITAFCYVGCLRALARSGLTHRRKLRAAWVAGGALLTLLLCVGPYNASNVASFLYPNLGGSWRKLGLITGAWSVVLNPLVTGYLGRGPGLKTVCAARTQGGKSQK

Row | SMILES | EC50 (GPR40) [nM] | Cl [1] [ml/mL/kg] | AUC [1] [µM·h] | half-life [1] [h] | Vd [1] [L/kg] | Cmax [1] [nM] | Tmax [1] [h] | bioavailability [1] [%] | concentration at 6 h [2] [ng/mL] | % change in AUC over vehicle (C57BL/6 mice) [%]
1 | COc1ccc(C(=O)N(CC(C)(C)CCCCCCCCCCCCCCCCCCCC(=O)NCCCN(CC(=O)O)CC(=O)O)c2cccc(C)n2)c(N2CCC(COc3cc([C@@H](CC(=O)O)C4CC4)ccn3)CC2)c1 [Example 13] | 0.76 | 0.14 | 88.9 | 6.5 | 0.07 | 268 | 8 | 0.52 | – | –
2 | COc1ccc(C(=O)N(CC(C)(C)CCCCCCCCCCCCCCCCCCCC(=O)NCCC[N+](C)(CC(=O)[O-])CC(=O)O)c2cccc(C)n2)c(N2CCC(COc3cc([C@@H](CC(=O)O)C4CC4)ccn3)CC2)c1 (some centres unmarked) [Example 14] | 0.63 | 0.20 | 68 | 6.7 | 0.09 | 164 | 8 | 0.37 | – | –
3 | COc1ccc(C(=O)N(CC(C)(C)CCCCCCCCCCCCCCCCCC(=O)NCC[N+](C)(CCCC(=O)NCCN)CCCC(=O)NCCN)c2cccc(C)n2)c(N2CCC(COc3cc([C@@H](CC(=O)O)C4CC4)ccn3)CC2)c1 [Example 17] | – | 0.10 | – | – | 0.08 | – | – | – | 237 ± 2 | −26.9
4 | COc1ccc(C(=O)N(CC(C)(C)CCCCCCCCCCCCCCCCCCCCCC[N+]23CCN(CC2)CC3)c2cccc(C)n2)c(N2CCC(COc3cc([C@@H](CC(=O)O)C4CC4)ccn3)CC2)c1 [Example 21, (S)-1-(24-(2-(4-(((4-(2-carboxy-1-cyclopropylethyl)pyridin-2-yl)oxy)methyl)piperidin-1-yl)-4-methoxy-N-(6-methylpyridin-2-yl)benzamido)-23,23-dimethyltetracosyl)-1,4-diazabicyclo[2.2.2]octan-1-ium] | 2.04 | 0.67 | 18.5 | 7.2 | 0.36 | 37 | 6.7 | 0.34 | – | –

More lines, in order of falling EC50 (GPR40), values ahead:

Row | EC50 (GPR40) [nM] | Cl [1] [ml/mL/kg] | AUC [1] [µM·h] | half-life [1] [h] | Vd [1] [L/kg] | Cmax [1] [nM] | Tmax [1] [h] | bioavailability [1] [%] | concentration at 6 h [2] [ng/mL] | SMILES | % change in AUC over vehicle (C57BL/6 mice) [%]
5 | 0.24 | 0.32 | 33.7 | 5.1 | 0.11 | 42 | 4 | 0.15 | 274 ± 99 | COc1ccc(C(=O)N(CC(C)(C)CCCCCCCCCCCCCCCCCC(=O)NCCC[N+]23CCN(CC2)CC3)c2cccc(C)n2)c(N2CCC(COc3cc([C@@H](CC(=O)O)C4CC4)ccn3)CC2)c1 [Example 18, (S)-1-(3-(20-(2-(4-(((4-(2-carboxy-1-cyclopropylethyl)pyridin-2-yl)oxy)methyl)piperidin-1-yl)-4-methoxy-N-(6-methylpyridin-2-yl)benzamido)-19,19-dimethylicosanamido)propyl)-1,4-diazabicyclo[2.2.2]octan-1-ium TFA salt] | −26.4
6 | 0.17 | 0.15 | 33.9 | 8.9 | 0.1 | 80.7 | 5.3 | 0.17 | – | COc1ccc(C(=O)N(CC(C)(C)CCCCCCCCCCCCCCCCCC(=O)NCCC[N+](C)(CC(=O)NCCN)CC(=O)NCCN)c2cccc(C)n2)c(N2CCC(COc3cc([C@@H](CC(=O)O)C4CC4)ccn3)CC2)c1 [Example 12] | –
7 | 0.07 | 0.43 | 28.5 | 4.7 | 0.11 | 77 | 4 | 0.31 | 347 ± 125 | COc1ccc(C(=O)N(CC(C)(C)CCCCCCCCCCCCCCCCCC(=O)NCCC[N+]23CC[N+](C)(CC2)CC3)c2cccc(C)n2)c(N2CCC(COc3cc([C@@H](CC(=O)O)C4CC4)ccn3)CC2)c1 [Example 19] | −29.7
